Assay results as given in article PMC12598805, “Crystal Structure–Activity Relationship of Some MeO Phenylacrylonitriles: Dual Antimicrobial–Cytotoxic Effects and in Silico Perspectives” (ChemistryOpen, 2025).
≈ marks a conversion by molar mass, not a printed value. Where two headings read alike, the source gives them in different places. Blank lines part the entries; values can stand above or below the compound they belong to.

Assays:
[1] = system: Candida albicans (ATCC-10231); assay: Agar diffusion, zone of inhibition; type: cell-based; settings: C.albicans, antibiotics at 5 mg mL^−1
Source text: (§1) The antibacterial and antifungal activities were reported utilizing the method described by the Clinical & Laboratory Standards Institute.^[ [31], [32] ^] Agar diffusion method was used to determine the antimicrobial activity of the synthesized substances. The media used were mueller hinton agar (MHA) for bacteria and sabouraud‐dextrose agar (SDA) for fungi (Merck), as recommended by the manufacturer.
(§2) The synthesized compounds were initially investigated for their antimicrobial activity to elucidate the potential therapeutic utility against various pathogenic microbes using the agar plate diffusion method. The compounds were tested at a concentration of 50 mg mL^−1, and the antibiotics (ampicillin, kanamycin, and amphotericin B) were used at 5 mg mL^−1. […] K.pneumoniae and B.cereus were resistant to ampicillin, while they were susceptible to kanamycin with inhibition values of 30 and 26 mm, respectively. No antimicrobial activity of the compounds was observed against E.faecalis, S.typhimurium, K.pneumoniae, and for the fungus compared to Amphotericin B (20 mm). […]
(§3) ATCC: American Type Culture Collection; NRRL: Northern Regional Research Laboratory The compounds 2(a-c) obtained could only be completely solubilised with dimethyl sulphoxide (DMSO) and the highest possible stock solutions of 50 mg.mL-1 were prepared. To these wells 50 μl of the previously prepared substances were transferred using sterile micropipette tips. For comparison, Ampicillin and kanamycin antibiotics for bacteria and Amphotericin B antibiotics for fungus were used as positive controls and DMSO was used as negative control. The prepared petri plates were kept at +4°C for about 1 hour and then the bacterial cultures were incubated at 37°C for 18-24 hours and mould cultures at 27-30°C for 48-72 hours. The zones formed were measured millimetrically with callipers. The experiments were performed with three repetitions. […]

[2] = system: Candida albicans (ATCC-10231); assay: MBC/MFC by sub-culture from wells without growth; type: cell-based; settings: ATCC10231, C.albicans
Protocol: (§4) ATCC: American Type Culture Collection; NRRL: Northern Regional Research Laboratory The compounds 2(a-c) obtained could only be completely solubilised with dimethyl sulphoxide (DMSO) and the highest possible stock solutions of 50 mg.mL-1 were prepared. […]
(§5) 3.1. Determination of Minimum Inhibition Concentration (MIC)
(§6) The minimum inhibition concentration (MIC) values of the compounds 2(a-c) against the test bacteria used in the study were determined according to the broth microdilution method.[1-2] MHB or SDB was used as test medium and bacterial and yeast suspensions were prepared at 0.5 Mc Farland concentration for each test bacteria. Double layer serial dilutions were prepared in "U" type 96-well microtiter plates. Medium+bacteria suspensions containing only medium in the first row, medium+bacteria in the second row and the final concentrations of the synthesised substances in the other rows between 25 mg.mL-1 and […] were added to the wells with a final volume of 200
(§7) μL. Ampicillin, Kanamycin and Amphotericin B standard antibiotics were used as positive controls.
(§8) Bacteria were incubated at 37±0.1 °C and C. albicans at 30±0.1 °C for 24-48 hours and the lowest concentration without growth was determined as MIC. Tests were performed in two parallel runs and mean values were given as a result. […]

[3] = system: Bacillus cereus (ATCC-10876); assay: Agar diffusion, zone of inhibition; type: cell-based; settings: B.cereus, antibiotics at 5 mg mL^−1
Source text: as §1
The synthesized compounds were initially investigated for their antimicrobial activity to elucidate the potential therapeutic utility against various pathogenic microbes using the agar plate diffusion method. The compounds were tested at a concentration of 50 mg mL^−1, and the antibiotics (ampicillin, kanamycin, and amphotericin B) were used at 5 mg mL^−1. […] K.pneumoniae and B.cereus were resistant to ampicillin, while they were susceptible to kanamycin with inhibition values of 30 and 26 mm, respectively. No antimicrobial activity of the compounds was observed against E.faecalis, S.typhimurium, K.pneumoniae, and for the fungus compared to Amphotericin B (20 mm).
(§9) Bacillus cereus (ATCC-10876) […]
as §3

[4] = system: Klebsiella pneumoniae (ATCC-70063); assay: Agar diffusion, zone of inhibition; type: cell-based; settings: K.pneumoniae, antibiotics at 5 mg mL^−1
Source text: as §1, §2
Klebsiella pneumoniae (ATCC-70063)
as §3

[5] = system: Bacillus cereus (ATCC-10876); assay: Broth microdilution MIC; type: cell-based; settings: B.cereus
Protocol: as §9, §4, §5, §6, §7, §8

[6] = system: Bacillus cereus (ATCC-10876); assay: MBC by sub-culture from wells without growth; type: cell-based; settings: B.cereus
Protocol: as §9, §4, §5, §6, §7
Bacteria were incubated at 37±0.1 °C and C. albicans at 30±0.1 °C for 24-48 hours and the lowest concentration without growth was determined as MIC. Tests were performed in two parallel runs and mean values were given as a result. In order to estimate “the minimum bactericidal/fungicidal concentrations (MBC/MFC) of the synthesised acrylonitrile derivatives “needed to indicate […] killing of the original inoculum,” 10 μl was taken from the wells with no observed growth and further sub-cultured onto their agar media (MHA and SDA for bacterial and fungal strains, respectively).[3] […]

[7] = system: human breast carcinoma (MCF‐7) cells; assay: Cytotoxicity, CCK8 cell viability; type: cell-based; settings: for IC50: Homo sapiens, MCF7, read-out: Cytotoxic activity IC50
Source text: (§10) We investigated the cytotoxic effects of acrylonitrile derivatives 2(a–c) on human lung carcinoma (A549, CCL‐185) cells purchased from American Culture Collection and human breast carcinoma (MCF‐7) cells purchased from Republic of Turkey Ministry of Agriculture and Forestry Şap Institute, (HUKUK, 00092502), In addition, mouse fibroblast cells (L929, CCL‐1) purchased from American Culture Collection were used to observe the effects of the compounds on healthy cells. In 25 T Flask, A549 cells were grown in dulbecco's modified eagle's medium, MCF‐7, and L929 cells were grown in eagle's minimum essential medium (EMEM), 10% fetal bovine serum and 1% Penicillin‐Streptomycin at 37 °C in a 5% CO2 and 100% humidified incubator. Cell proliferation was checked every day. Cells were taken into the experiment when the cell density reached 70% to 80%. (See Supporting Information for experimental preparation of biological studies).
(§11) The compounds 2a, 2b, and 2c were dissolved in 99.8% Dimethyl sulfoxide (DMSO) respectively, as
(§12) 10 mM main stock. To prepare the doses of acrylonitrile compounds used in the experiment to be
(§13) applied to the cells, five different concentrations of 31.25; 62.5; 125; 250 and 500 μM were prepared
(§14) by diluting the main stock solutions (10 mM) with the medium selected according to the cells. 5-
(§15) Fluorouracil (5-FU) was selected as a positive control in the study. After the 5-FU main stock solution
(§16) was dissolved with DMSO to be 10 mM, the concentrations to be used were diluted with the selected
(§17) media and made ready for the experimental plan. The concentrations used for 5-FU were prepared in
(§18) the same doses used for acrylonitrile derivatives. For the negative control group, groups containing
(§19) only media and no substance were used. Prepared acrylonitrile compounds and 5-FU concentrations
(§20) were added to the wells in three replicates for each dose, and their effects on cell viability at 24 and 48
(§21) Trypan blue solution (Gibco, 1525061) was used to distinguish between living and dead cells in the
(§22) study. Trypan blue passes uncontrollably through the membrane of dead cells that have lost their cell
(§23) membrane integrity and stains the cell blue. Living cells, on the other hand, are not stained because
(§24) Live cell counts were performed using trypan blue using a
(§25) cell counter (Logos Luna II).
(§26) In order to detach the cells adhering to the flasks from the bottom, 500 μL of 0.25% Trypsin-EDTA
(§27) (Gibco, 15400054) solution was added and treated for five minutes.
(§28) detach from the bottom under an inverted microscope (Zeiss Primovert, Germany), medium containing
(§29) 10% FBS was added. After centrifugation at 300 g for 5 minutes and discarding the medium, 1 mL of
(§30) medium was added and the cells were seeded into 96-well culture dishes as 1x10^4 cells in 100 μL per
(§31) Cell Counting Kit 8 (CCK8; Medchem, 146436) was used to determine cell viability. After adding 20 μL
(§32) of CCK8 solution to each well in the dark, 96-well culture dishes were wrapped with aluminum foil and
(§33) kept in a CO2 incubator at 37 °C for 2 hr. Then, it was automatically read with a microplate reader
(§34) (Chromate) at 450 and 630 nm wavelengths. The following formula was used to determine cell
(§35) % Viability = (Sample Well−Blank) (Negative Control−Blank)×100 (1)
(§36) The half-maximal inhibitory concentration (IC50) was calculated as 50% cell death causing dose
(§37) compared to the control group. All data are given as the mean percent fraction of control ± SEM.
(§38) Statistical analysis was done by one-way analysis of variance (ANOVA), followed by Tukey’s multiple
(§39) comparison tests. IBM SPSS Statistics 22 was used to utilize statistical analysis. […]

[8] = system: human lung carcinoma (A549, CCL‐185) cells; assay: Cytotoxicity, CCK8 cell viability; type: cell-based; settings: for IC50: Homo sapiens, read-out: Cytotoxic activity IC50
Source text: as §10, §11, §12, §13, §14, §15, §16, §17, §18, §19, §20, §21, §22, §23, §24, §25, §26, §27, §28, §29, §30, §31, §32, §33, §34, §35, §36, §37, §38, §39

[9] = Cytotoxicity on healthy cells, CCK8 cell viability; type: cell-based, mouse; settings: mouse, L929 mouse fibroblast cells, read-out: Cytotoxic activity IC50
Source text: as §10, §11, §12, §13, §14, §15, §16, §17, §18, §19, §20, §21, §22, §23, §24, §25, §26, §27, §28, §29, §30, §31, §32, §33, §34, §35, §36, §37, §38, §39

[10] = system: mouse fibroblast cells (L929, CCL‐1); assay: Cytotoxicity on healthy cells, CCK8 cell viability; type: cell-based
Source text: as §10, §11, §12, §13, §14, §15, §16, §17, §18, §19, §20, §21, §22, §23, §24, §25, §26, §27, §28, §29, §30, §31, §32, §33, §34, §35, §36, §37, §38, §39

SMILES: C[C@@H]1[C@H](O)[C@@H](C)/C=C/C=C/C=C/C=C/C=C/C=C/C=C/[C@H](O[C@@H]2O[C@H](C)[C@@H](O)[C@H](N)[C@@H]2O)C[C@@H]2O[C@](O)(C[C@@H](O)C[C@@H](O)[C@H](O)CC[C@@H](O)C[C@@H](O)CC(=O)O[C@H]1C)C[C@H](O)[C@H]2C(=O)O [Amphotericin B, reference compound]
zone of inhibition [1]: 20 ± 0.71 mm | zone of inhibition at 5 mg/mL ([1]; Candida albicans, ATCC10231): 20 mm | MBC [2]: 250 µg/mL (≈ 271 µM)

MIC [5]: 31.25 µg/mL (≈ 64.5 µM)
SMILES: NC[C@H]1O[C@H](O[C@H]2[C@H](O)[C@@H](O[C@H]3O[C@H](CO)[C@@H](O)[C@H](N)[C@H]3O)[C@H](N)C[C@@H]2N)[C@H](O)[C@@H](O)[C@@H]1O [Kanamycin, reference compound]
zone of inhibition [3]: 26 ± 1.41 mm | zone of inhibition ([3]; listed as kanamycin): 26 mm | zone of inhibition [4]: 30 ± 0 mm | zone of inhibition ([4]; listed as kanamycin): 30 mm | MBC [6]: 62.5 µg/mL (≈ 129 µM)

SMILES: O=c1[nH]cc(F)c(=O)[nH]1 [5‐FU, 5‐Fluorouracil, reference compound]
IC50 ([7]; MCF‐7, 24 h): 250 µM | IC50 ([7]; MCF‐7, 48 h): 102 µM | decrease in cell viability ([7]; MCF‐7, 24 h, 31.25 μM): 23% | decrease in cell viability ([7]; MCF‐7, 24 h, 62.5 μM): 23% | decrease in cell viability ([7]; MCF‐7, 24 h, 125 μM): 34% | decrease in cell viability ([7]; MCF‐7, 24 h, 250 μM): 50% | decrease in cell viability ([7]; MCF‐7, 24 h, 500 μM): 76% | decrease in cell viability ([7]; MCF‐7, 48 h, 31.25 μM): 46% | decrease in cell viability ([7]; MCF‐7, 48 h, 62.5 μM): 47% | decrease in cell viability ([7]; MCF‐7, 48 h, 125 μM): 52% | decrease in cell viability ([7]; MCF‐7, 48 h, 250 μM): 74% | decrease in cell viability ([7]; MCF‐7, 48 h, 500 μM): 95% | suppressive effect on cell proliferation / viability ([8]; A549, 24 h, 31.25 to 500 μM): did not show any suppressive effect | decrease in cell viability ([8]; A549, 48 h, 250 μM): 17% | decrease in cell viability ([8]; A549, 48 h, 500 μM): 77% | IC50 ([8]; A549, 24 h): > 500 µM | IC50 ([8]; A549, 48 h): 386 µM | IC50 at 24 h ([9]; L929, 24 h): 109 µM | IC50 at 48 h ([9]; L929, 48 h): 33 µM | decrease in cell viability ([10]; L929, 24 h, 31.25 μM): 45% | decrease in cell viability ([10]; L929, 24 h, 62.5 μM): 45% | decrease in cell viability ([10]; L929, 24 h, 125 μM): 51% | decrease in cell viability ([10]; L929, 24 h, 250 μM): 62% | decrease in cell viability ([10]; L929, 24 h, 500 μM): 93% | decrease in cell viability ([10]; L929, 48 h, 31.25 μM): 50% | decrease in cell viability ([10]; L929, 48 h, 62.5 μM): 64% | decrease in cell viability ([10]; L929, 48 h, 125 μM): 68% | decrease in cell viability ([10]; L929, 48 h, 250 μM): 80% | decrease in cell viability ([10]; L929, 48 h, 500 μM): 93%
